Results on two compounds are retold here after patent publication US20220362182A1, “METHODS FOR REVERSING HEPATIC STEATOSIS” (BRIGHTSEED, INC., priority 2020, published 2022).

Series [1] relates to INS mRNA. Briefly: insulin mRNA qPCR in T6PNE cells. It counts as cell-based, human. The method, then:
(§1) Quantitative PCR (Q-PCR) from in vitro cell culture experiments used total RNA purified using RNeasy Kits (Qiagen). For liver tissue samples, total RNA was isolated using Trizol (Invitrogen) and prepared for RNAseq (mouse liver DMSO and NCT, N=3). cDNA was amplified using 3 μg of total RNA using qScript cDNA SuperMix (Quanta BioSciences, Beverly, Mass., USA). QPCR analysis was performed using SYBR® Select Master Mix (Applied Biosystems) and ABI 7900HT (Applied Biosystems, Thermo Fisher Scientific). The Ct values of mRNA expression were then normalized to the 18 s rRNA values and are expressed as fold change over samples from mice fed normal chow for in vivo experiments or DMSO controls for cell culture experiments.

The test system of series [2] is T6PNE cells. Briefly: fat clearance assay in palmitate-treated T6PNE cells (Oil Red O, Nile Red, triglyceride). Conditions: 0.25 mM palmitate for 2 days; for cellular triglyceride (TG) level: 10 μM. It counts as cell-based, human. The procedure: Oil red O and Nile Red staining were used to measure lipid accumulation. Oil Red O staining was done as known in the art. Briefly, fixed cells were incubated with Oil Red O solution (Poly Scientific) for 3 h, followed by photomicrography (Olympus, IX71). For Nile Red staining, dye (1: 500 in PBS from 1 mg/ml in ethanol stock, Sigma) was added for 30 mins and DAPI added for 10 mins at room temperature. Quantification of Nile Red staining was done with a Celigo imaging cytometer (Nexcelom Bioscience). More than 4000 cells were analyzed for each quantification. The number of Nile Redpositive cells was normalized to the DAPI-positive cell number for each well and fold change was calculated relative to a DMSO control well.
Palmitate (150 mM) (Sigma-Aldrich) was prepared in 50% ethanol and precomplexed with 15% fatty acid-free BSA (Research Organics, Cleveland, Ohio, USA) in a 37 C water shaker. BSA-precomplexed palmitate was used as a 12 mM stock solution for all assays with a final concentration of 0.25 mM palmitate in cell culture medium.
siRNAs were purchased from Ambion. For transfections, 24 μL of each siRNA (1 μM stock) was mixed with 90 μL of a 1:100 dilution of Lipofectamine RNAi MAX (Invitrogen, Waltham, Mass., USA) in Opti-MEM. Transfection was done in 24 well plates (Thermo Fisher Scientific, Waltham, Mass., USA), by incubation with cells for 30 min. at room temperature. One day after transfection, cells were transferred to 96 well plates (2000 cells per well) and incubated at 37° C. for an additional day. Forty-eight hours after transfection, either palmitate-BSA complex or BSA control plus or minus compounds was added for 2 days. For validation of siRNAs, transfected cells were harvested for RNA purification and QPCR for each gene 2 days after transfection.
The bicinchoninic acid (BCA) protein assay kit assay (Thermo scientific) was used to measure protein amount for DART, Western blotting and TG assays. Absorbance at 550 nm was determined using a plate reader.

A short description of series [3]: murine PK. To be noted: mouse, in vivo. The procedure:
Murine PK was conducted by WuXi AppTec (Shanghai, China). C57BL/6 male mice of age 7-9 weeks were obtained from SLAC Laboratory Animal Co (Shanghai, China). Mice were fasted for 12 h prior to compound administration. Oral gavage was used for PO dosing. For IV dosing, compound was administered by tail vein injection. For compound concentration determination, 25 μL of blood was collected from the submandibular or saphenous vein and processed for plasma. Plasma concentration of compound was determined by LC-MS/MS.

The conditions of series [4]: animal cells and mice; cited from earlier work.
The test system of series [5] is SPNS2 mRNA. The series is described as follows: SPNS2 qPCR in T6PNE cells. The format is cell-based, human. The procedure:
as §1

The test system of series [6] is CYP26A1 mRNA. The series is described as follows: CYP26A1 mRNA in T6PNE cells. It counts as cell-based, human. Conditions: 2 days, 0.25 mM palmitate, NCT 10 μM, 4-OH-RA 20 μM. The procedure:
as §1

In series [7] the test system is SPNS2 mRNA. Briefly: SPNS2 mRNA in primary human hepatocytes. The format is cell-based. To be noted: high fat media, 5, 15, 40 µM, Day 4 to Day 10. The procedure:
Experiments with primary human hepatocytes were performed by CN-Bio (Cambridge, UK). Primary human hepatocytes (PHHs), human Kupffer cells (HKs) and human stellate cells (HSCs) were seeded onto CN-Bio's PhysioMimix LC12 MPS culture plates at 6×10^5 cells for PHHs and 6×10^4 cells for HKs and HSCs in 1.6 ml of CN-Bio's HEP-lean media with 5% FCS. Throughout the experiment the cells were maintained at a flow rate of 1 μl/s. After 24 h (Day 1) of seeding, the media was changed to HEP-lean media and the cells were incubated until day 4 to allow the cells to form microtissues. At day 4 post seeding, media was changed to HEP-fat media and treated with DMSO or NCT (5, 15, 40 μM). Media was replaced on days 6 and 8. Cells were harvested on day 10 for RNA extraction. Data are presented as mean ±SEM of three or more samples as indicated. Statistical significance was assessed using Student's t-test, ANOVA or R^2 coefficient of correlation.

Series [8] relates to CYP26A1 mRNA. Briefly: hepatic CYP26A1 mRNA in DIO mice. The format is in vivo. Conditions: mouse liver. The method, then: as §1
For dose response experiments, mice were injected intraperitoneally with 10% DMSO as vehicle control or 4 different doses of NCT (30, 60, 120 and 240 mg/kg of body weight) dissolved in 10% DMSO. Mice received 2 doses per day with a 5 h interval between injections for 3 days. To test the effect of NCT (Sundia MediTech Company, Ltd., Custom synthesis), 200 mg/kg was injected IP bid for 14 days. On day 15, mice received a final dose of NCT followed by IP injection with 3 g/kg dextrose. One h later, blood samples were collected and mice were euthanized using pentobarbital. Total mouse, liver and epididymal fat pad weights were measured. […]

In series [9] the test system is dihydroceramides. The series is described as follows: lipidomic analysis of livers from mice injected IP. The format is in vivo, mouse. To be noted: livers from mice injected IP for 2 weeks. The procedure:
Ceramides and dihydroceramides were measured in the UCSD Lipidomics Core Facility as previously described (Quehenberger et al.). Briefly, samples were extracted using the butanol: methanol (BUME) method. The lipid layer was collected and run on a Thermo-Vanquish UPLC (Thermo Scientific) with a Cortecs T3 (C18), 2.1 mm×150 mm; 1.8 uT3 column and a binary solvent system. Mass spectrometry employed a Thermo Q Exactive instrument with MS/MS data dependent acquisition scan mode and LipidSearch software (Thermo Fisher Scientific).

Entries after “also recorded” stand apart in the source; their conditions may differ. Like-named read-outs stand apart in the source and are kept apart here.

On to `COc1cc(/C=C/C(=O)NCCc2ccc(O)cc2)ccc1O` [NFT, N-trans feruloyltyramine], for which the “INS mRNA” value in series [1] is “increased”. In series [2], the “fat clearance (stored fat by Oil Red O and Nile Red staining)” value was “less stored fat than control cells; also recorded: induced fat clearance from palmitate-loaded cells”; the “cellular triglyceride (TG) level” value is on record as “produced the same result as the Nile Red staining”. In [3], the oral bioavailability result is “poor oral bioavailability”. The anti-inflammatory properties result in series [4] is on record as “anti-inflammatory properties”.
Take `O=C(/C=C/c1ccc(O)c(O)c1)NCCc1ccc(O)cc1` [NCT, N-trans-caffeoyltyramine]: the “INS mRNA” value in series [1] was “increased”. Also, in [2], the “fat clearance (stored fat by Oil Red O and Nile Red staining)” value is given as “less stored fat than control cells; also recorded: induced fat clearance from palmitate-loaded cells”; the “cellular triglyceride (TG) level” value is “produced the same result as the Nile Red staining”. Moreover, the “SPNS2 expression (mRNA)” value in series [5] is “induced SPNS2 expression”. Moreover, in series [5] (listed as N-trans-caffeoyltyramine), the “SPNS2 expression (mRNA)” value is “induced the expression”. Also, the “CYP26A1 mRNA level” value in series [6] is “induced CYP26a1”. For the same compound, in series [7], the “SPNS2 mRNA” value was “did not induce a change in SPNS2 expression”. Besides, the “hepatic CYP26A1 mRNA” value in series [8] is “induced CYP26a1”. For the same compound, the “decrease in ceramide/dihydroceramide ratio in liver” value in series [9] was “evident as well”. Moreover, the oral bioavailability result in [3] is given as “poor oral bioavailability”. In [4], the anti-inflammatory properties entry was “anti-inflammatory properties”.
